From patent US9932335B2 (priority 2013, dated 2018)
Changes are numbered by the printed parent chain. Where two headings read alike, the source gives them in different places.

Columns and labels:
[1] = target: T1, human M1 (Homo sapiens, UniProt P11229); experiment: M1 PAM assay (FLIPR intracellular calcium, CHO human M1); type: cell-based
T1 construct: expressed in transfected cells; host or cells: CHO cells
T1 sequence (P11229 1-460): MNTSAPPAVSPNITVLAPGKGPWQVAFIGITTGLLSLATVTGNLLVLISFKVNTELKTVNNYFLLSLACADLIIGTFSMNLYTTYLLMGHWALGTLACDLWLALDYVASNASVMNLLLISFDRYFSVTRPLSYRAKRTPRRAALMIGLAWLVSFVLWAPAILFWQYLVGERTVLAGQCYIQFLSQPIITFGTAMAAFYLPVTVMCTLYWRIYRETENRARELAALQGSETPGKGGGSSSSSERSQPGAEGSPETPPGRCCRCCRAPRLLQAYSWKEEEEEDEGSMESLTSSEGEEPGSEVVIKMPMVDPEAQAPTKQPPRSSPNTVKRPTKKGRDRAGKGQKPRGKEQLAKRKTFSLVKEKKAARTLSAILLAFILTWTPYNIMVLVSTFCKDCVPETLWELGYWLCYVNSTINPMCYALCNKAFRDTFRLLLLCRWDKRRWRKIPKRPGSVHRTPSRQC
Protocol: The assay study the effect of several concentrations of test compounds on basal or acetylcholine-stimulated Ca^2+ levels using FLIPR. CHO human M1 are plated the day before the experiments at 2×10^5 cells/ml in PDL BioCoat 96 well black/clear plate (Becton 35 4640). The cells are grown at 37° C. and 5% CO2 in the following medium: F12 Nut Mix (Gibco 21765), 10% FCS heat inactivated (GIBCO 16000-044), 1% Pen Strep (Gibco, 15140) and 200 μg/ml Geneticin (Gibco 11811). On the day of the experiment, the medium was removed and replaced by 100 μl of dye loading buffer containing Hanks Balanced Salt solution (HBSS, 14065-049, Gibco) with 20 mM HEPES (Gibco 15630-056), 2 mM Probenicid (Sigma P8761), […] (Molecular Probes F-14202), 10% Pluronic acid Molecular Probes P-3000) pH=7.4 and incubated at 37° C. After 60 minutes extracellular dye was removed and the cells were washed five times with FLIPR buffer containing HBSS (Gibco 14065-049) with 20 mM HEPES (Gibco, 15630-056), 2 mM Probenicid (Sigma P8761) pre-warmed at 37° C. using and Ebml cell washer leaving 100 μl of FLIPR buffer in each well. The cell plate and the diluted compounds (1% DMSO final concentration) are placed on the platform of the FLIPR and the door closed. A signal test to check background fluorescence and basal fluorescence signal is performed. Laser intensity is adjusted if necessary. Two minutes preincubation with the diluted test compounds is provide to determine any agonist activity on the M1 receptor by comparison to 30 nM Acetylcholine control. In order to determine any modulator activity the diluted compounds were added to cells and after two minutes preincubation, the EC20 of acetylcholine is added followed by another two minutes preincubation before the measurement of intracellular Ca^2+ with a FLIPR (Molecular Devices).

[2] = target: T2, M1 receptor (Rattus norvegicus, UniProt P08482); experiment: M1 PAM assay (FLIPR intracellular calcium), rat; type: cell-based
T2 construct: expressed in transfected cells
T2 sequence (P08482 1-460): T1 sequence (P11229 1-460) with A5V, T254S, P309S, R320K, A337G, I413V

[3] = human M1 in CHO cells, modulator activity with EC20 of acetylcholine, FLIPR Ca2+, read-out: EC50 h PAM
[4] = rat, modulator activity with EC20 of acetylcholine, FLIPR Ca2+, read-out: EC50 rat PAM

SMILES	EC50 [1, 3] [nM]	EC50 [2, 4] [nM]	EC50 [1] [nM]	EC50 [2] [nM]
Cn1cc(-c2ccc(Cn3cc(C(=O)N[C@H](CO)C(C)(C)C)c4ncccc43)c(F)c2)cn1 [Example 27, 1-[2-Fluoro-4-(1-methyl-1H-pyrazol-4-yl)-benzyl]-1H-pyrrolo[3,2-b]pyridine-3-carboxylic acid ((S)-1-hydroxymethyl-2,2-dimethyl-propyl)-amide]	126	355	–	–
Cn1cc(-c2ccc(Cn3cc(C(=O)NC4CCCCC4)c4ncccc43)c(F)c2)cn1 [Example 28, N-cyclohexyl-1-(2-fluoro-4-(1-methyl-1H-pyrazol-4-yl)benzyl)-1H-pyrrolo[3,2-b]pyridine-3-carboxamide]	–	–	283	521
Cn1cc(-c2ccc(Cn3cc(C(=O)Nc4ncccc4CO)c4ncccc43)c(F)c2)cn1 [Example 30, 1-[2-Fluoro-4-(1-methyl-1H-pyrazol-4-yl)-benzyl]-1H-pyrrolo[3,2-b]pyridine-3-carboxylic acid (3-hydroxymethyl-pyridin-2-yl)-amide]	–	–	82.4	210
Cn1cc(-c2ccc(Cn3cc(C(=O)N[C@H](CO)c4ccccc4)c4ncccc43)c(F)c2)cn1 [Example 32, 1-[2-Fluoro-4-(1-methyl-1H-pyrazol-4-yl)-benzyl]-1H-pyrrolo[3,2-b]pyridine-3-carboxylic acid ((S)-2-hydroxy-1-phenyl-ethyl)-amide]	–	–	88.7	277
Cn1cc(-c2ccc(Cn3cc(C(=O)NC[C@@H](O)c4ccccc4)c4ncccc43)c(F)c2)cn1 [Example 34, 1-[2-Fluoro-4-(1-methyl-1H-pyrazol-4-yl)-benzyl]-1H-pyrrolo[3,2-b]pyridine-3-carboxylic acid ((S)-2-hydroxy-2-phenyl-ethyl)-amide]	120	494	–	–
Cn1cc(-c2ccc(Cn3cc(C(=O)Nc4ncccc4O)c4ncccc43)c(F)c2)cn1 [Example 36, 1-[2-Fluoro-4-(1-methyl-1H-pyrazol-4-yl)-benzyl]-1H-pyrrolo[3,2-b]pyridine-3-carboxylic acid (3-hydroxy-pyridin-2-yl)-amide]	109	314	–	–
Cn1cc(-c2ccc(Cn3cc(C(=O)N[C@H]4COCC[C@@H]4O)c4ncccc43)c(F)c2)cn1 [Example 41, 1-[[2-fluoro-4-(1-methylpyrazol-4-yl)phenyl]methyl]-N-[(3S,4S)-4-hydroxyoxan-3-yl]pyrrolo[3,2-b]pyridine-3-carboxamide]	30.4	51	–	–
Cc1ccc(Cn2cc(C(=O)N[C@H]3CCCC[C@@H]3O)c3ncccc32)cc1 [Example 43, N-((1S,2S)-2-hydroxycyclohexyl)-1-(4-methylbenzyl)-1H-pyrrolo[3,2-b]pyridine-3-carboxamide]	–	–	207	611
COc1ccc(Cn2cc(C(=O)N[C@H]3CCCC[C@@H]3O)c3ncccc32)cc1F [Example 44, 1-(3-fluoro-4-methoxybenzyl)-N-((1S,2S)-2-hydroxycyclohexyl)-1H-pyrrolo[3,2-b]pyridine-3-carboxamide]	–	–	127	598
Cc1ccc(Cn2cc(C(=O)N[C@H]3CCCC[C@@H]3O)c3ncccc32)cc1F [Example 46, 1-(3-fluoro-4-methylbenzyl)-N-((1S,2S)-2-hydroxycyclohexyl)-1H-pyrrolo[3,2-b]pyridine-3-carboxamide]	–	–	257	444
COc1ccc(Cn2cc(C(=O)N[C@H]3CCCC[C@@H]3O)c3ncccc32)cc1 [Example 47, N-((1S,2S)-2-hydroxycyclohexyl)-1-(4-methoxybenzyl)-1H-pyrrolo[3,2-b]pyridine-3-carboxamide]	–	–	163	217
O=C(N[C@H]1CCCC[C@@H]1O)c1cn(Cc2ccc(C(F)(F)F)nc2)c2cccnc12 [Example 48, N-((1S,2S)-2-hydroxycyclohexyl)-1-((6-(trifluoromethyl)pyridin-3-yl)methyl)-1H-pyrrolo[3,2-b]pyridine-3-carboxamide]	–	–	1770	422
O=C(N[C@H]1CCCC[C@@H]1O)c1cn(Cc2ccc(-c3ccccc3)cc2)c2cccnc12 [Example 49, 1-(biphenyl-4-ylmethyl)-N-((1S,2S)-2-hydroxycyclohexyl)-1H-pyrrolo[3,2-b]pyridine-3-carboxamide]	–	–	300	512
Cn1ncc2cc(Cn3cc(C(=O)N[C@H]4CCCC[C@@H]4O)c4ncccc43)ccc21 [Example 52, N-((1S,2S)-2-hydroxycyclohexyl)-1-((1-methyl-1H-indazol-5-yl)methyl)-1H-pyrrolo[3,2-b]pyridine-3-carboxamide]	–	–	71.5	163
Cn1cc(-c2ccc(Cn3cc(C(=O)N[C@H]4CCCC[C@@H]4O)c4ncccc43)cc2)cn1 [Example 55, N-((1S,2S)-2-hydroxycyclohexyl)-1-(4-(1-methyl-1H-pyrazol-4-yl)benzyl)-1H-pyrrolo[3,2-b]pyridine-3-carboxamide]	–	–	11.1	13.9
Cn1cc(-c2ccc(Cn3cc(C(=O)N[C@H]4CCCC[C@@H]4O)c4ncccc43)cn2)cn1 [Example 56, N-((1S,2S)-2-hydroxycyclohexyl)-1-((6-(1-methyl-1H-pyrazol-4-yl)pyridin-3-yl)methyl)-1H-pyrrolo[3,2-b]pyridine-3-carboxamide]	–	–	34.9	71
O=C(N[C@H]1CCCC[C@@H]1O)c1cn(Cc2ccc(-c3nccs3)cc2)c2cccnc12 [Example 60, N-((1S,2S)-2-hydroxycyclohexyl)-1-(4-(thiazol-2-yl)benzyl)-1H-pyrrolo[3,2-b]pyridine-3-carboxamide]	–	–	38.2	126
CNC(=O)c1ccc(Cn2cc(C(=O)N[C@H]3CCCC[C@@H]3O)c3ncccc32)cc1 [Example 61, N-((1S,2S)-2-hydroxycyclohexyl)-1-(4-(methylcarbamoyl)benzyl)-1H-pyrrolo[3,2-b]pyridine-3-carboxamide]	–	–	9.1	18
O=C(NC1CCOCC1)c1cn(Cc2ccc3[nH]ncc3c2)c2cccnc12 [Example 62]	–	–	428	325
Cn1cc(-c2ccc(Cn3cc(C(=O)NCc4cccnc4)c4ncccc43)c(F)c2)cn1 [Example 64]	–	–	261	1060
Cn1cc(-c2ccc(Cn3cc(C(=O)NCC4(O)CC4)c4ncccc43)c(F)c2)cn1 [Example 65, 1-(2-fluoro-4-(1-methyl-1H-pyrazol-4-yl)benzyl)-N-((1-hydroxycyclopropyl)methyl)-1H-pyrrolo[3,2-b]pyridine-3-carboxamide]	315	1390	–	–
